# From patent US4689345A, “Oxygenated alkyl substituted bicyclo alkanes” (CBD Corporation, priority 1986, dated 1987)
# Several values for one entry are separate records, joined by “and”; a condition that tells them apart may be missing. Equal values may be shown once. Read-outs that look alike come from different tables or passages of the source.
# Columns and labels:
# progesterone receptor [1] = format: binding; settings: Histoplasma
# androgen receptor [2] = test: Androgen receptor inhibition, Sporotrichum; format: binding
# estrogen receptor [3] = test: Estrogen receptor inhibition, Fulsarium gravarium; format: binding
# Text: In the second series of experiments using the compound of the invention 2-(5-hydroxyhept-1-yl) bicyclo[3.3.0]octan-7-one {hexahydro-4-(5-hydroxyheptyl)-2-(1H)-pentalenone} upon zeralenone and zearalanol production, zearalenone and zearalanol were chemically obtained from Sigma Chemical Co., St. Louis, Mo.
# androgen receptor [4] = test: Androgen receptor inhibition, Pseudomonas testosteroni; format: binding; settings: DHT:anti-androgen 1:1,000
# estrogen receptor [5] = test: Estrogen receptor inhibition, Pseudomonas testosteroni; format: binding
# progesterone receptor [6] = test: Progesterone receptor inhibition, Actinomyces; format: binding
# progesterone receptor [7] = test: Progesterone receptor inhibition, Pseudomonas testosteroni; format: binding
# estrogen receptors = test: Effect on estrogen receptors in breast capsule tissue; format: binding, human; settings: breast capsule / hard band tissue
# Method: "Hard fibrous band" formation was retarded around breast implants following augmentation surgery.
# The tissues were evaluated, with appropriate controls, for effects by the novel anti-androgen.
# progesterone receptor [8] = molecular target: T1, progesterone receptor (Homo sapiens, UniProt P06401); test: Progesterone receptor inhibition in skin/tissue fibroblast lines; format: cell-based; settings: DHT:compound 1:1,000
# T1 construct: Skin fibroblast tissue lines from surgical explants were obtained; endogenous in cells; host or cells: skin fibroblast lines from surgical explants (keloid, scalp, forearm)
# T1 sequence (P06401 1-933): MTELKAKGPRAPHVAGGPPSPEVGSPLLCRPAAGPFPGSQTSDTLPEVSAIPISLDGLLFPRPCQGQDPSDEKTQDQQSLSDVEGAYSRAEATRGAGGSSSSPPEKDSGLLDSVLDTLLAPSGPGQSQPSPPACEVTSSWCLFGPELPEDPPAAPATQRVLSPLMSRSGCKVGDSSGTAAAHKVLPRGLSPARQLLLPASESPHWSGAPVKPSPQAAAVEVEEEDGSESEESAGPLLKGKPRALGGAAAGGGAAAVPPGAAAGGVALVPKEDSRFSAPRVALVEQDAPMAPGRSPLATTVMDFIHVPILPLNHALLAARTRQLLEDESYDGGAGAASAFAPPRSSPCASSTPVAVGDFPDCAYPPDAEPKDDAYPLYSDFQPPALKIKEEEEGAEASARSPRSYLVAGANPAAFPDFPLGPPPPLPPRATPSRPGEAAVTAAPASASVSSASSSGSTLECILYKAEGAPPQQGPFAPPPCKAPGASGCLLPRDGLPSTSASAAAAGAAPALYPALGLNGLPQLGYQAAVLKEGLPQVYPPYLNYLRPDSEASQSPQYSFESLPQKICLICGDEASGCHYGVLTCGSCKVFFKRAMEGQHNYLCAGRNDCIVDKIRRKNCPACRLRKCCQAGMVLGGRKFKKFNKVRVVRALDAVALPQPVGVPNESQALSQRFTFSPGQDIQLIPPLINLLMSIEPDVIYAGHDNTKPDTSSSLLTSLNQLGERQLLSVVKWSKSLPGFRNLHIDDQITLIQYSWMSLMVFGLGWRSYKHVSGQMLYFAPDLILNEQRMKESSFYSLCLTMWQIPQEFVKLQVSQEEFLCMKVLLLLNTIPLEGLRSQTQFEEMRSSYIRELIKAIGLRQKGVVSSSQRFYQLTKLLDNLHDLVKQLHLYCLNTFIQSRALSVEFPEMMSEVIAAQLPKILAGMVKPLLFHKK
# Method: (§1) Explants of both normal and keloid skin and tissue fibroblast lines were established.
# (§2) Hormonal receptor analyses on these tissues were performed by the method of Griffith et al., Journal of Clinical Investigation, Vol. 57, page 1340 (1978).
# estrogen receptor [9] = test: Effect on estrogen receptors in melanoma; format: binding; settings: 1:1000 DHT to compound
# androgen receptor [10] = molecular target: T2, androgen receptor (Homo sapiens, UniProt P10275); test: Androgen receptor inhibition in skin/tissue fibroblast lines; format: cell-based; parameters: The bald skin was used for androgen receptors using the second technique described above; from tissue; host or cells: bald scalp skin of hair transplantation volunteers; settings: DHT:compound 1:1,000
# T2 sequence (P10275 1-920): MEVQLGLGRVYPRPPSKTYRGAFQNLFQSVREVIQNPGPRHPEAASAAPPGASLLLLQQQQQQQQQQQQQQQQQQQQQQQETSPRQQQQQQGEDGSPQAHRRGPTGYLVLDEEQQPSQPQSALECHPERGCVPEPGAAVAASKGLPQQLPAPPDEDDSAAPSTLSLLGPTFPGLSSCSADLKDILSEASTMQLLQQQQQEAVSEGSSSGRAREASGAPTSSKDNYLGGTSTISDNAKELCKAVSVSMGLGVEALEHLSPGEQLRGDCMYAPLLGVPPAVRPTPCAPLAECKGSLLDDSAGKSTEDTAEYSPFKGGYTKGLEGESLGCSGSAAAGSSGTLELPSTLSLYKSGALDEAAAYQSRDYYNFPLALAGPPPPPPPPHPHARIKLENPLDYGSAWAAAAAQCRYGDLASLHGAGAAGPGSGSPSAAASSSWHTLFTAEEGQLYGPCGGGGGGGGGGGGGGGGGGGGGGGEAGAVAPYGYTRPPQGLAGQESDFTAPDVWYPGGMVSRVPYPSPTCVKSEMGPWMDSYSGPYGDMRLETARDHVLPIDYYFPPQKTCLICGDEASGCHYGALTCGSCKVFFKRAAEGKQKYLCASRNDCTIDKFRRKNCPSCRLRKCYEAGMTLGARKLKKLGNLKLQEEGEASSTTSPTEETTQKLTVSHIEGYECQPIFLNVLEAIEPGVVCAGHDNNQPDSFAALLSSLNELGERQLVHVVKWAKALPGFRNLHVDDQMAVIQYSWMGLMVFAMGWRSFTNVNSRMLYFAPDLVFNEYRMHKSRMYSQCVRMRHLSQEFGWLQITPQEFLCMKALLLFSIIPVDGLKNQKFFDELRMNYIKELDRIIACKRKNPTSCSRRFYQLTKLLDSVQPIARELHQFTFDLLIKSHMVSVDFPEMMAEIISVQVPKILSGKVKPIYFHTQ
# Method: as §1, §2
structure (smiles),measurement,setting,value
CCC(O)CCCCC1CCC2CC(=O)CC12 (centres unmarked) [Compound IV],% Progesterone Receptor Inhibition,progesterone receptor [1],0%
same,% Androgen Receptor Inhibition,androgen receptor [2],29%
same,% Estrogen Receptor Inhibition,estrogen receptor [3]; DHT:anti-androgen 1:1,0%
same,% Estrogen Receptor Inhibition,estrogen receptor [3]; DHT:anti-androgen 1:10,0%
same,% Estrogen Receptor Inhibition,estrogen receptor [3]; DHT:anti-androgen 1:100,0%
same,% Estrogen Receptor Inhibition,"estrogen receptor [3]; DHT:anti-androgen 1:1,000",0%
same,% Androgen Receptor Inhibition,androgen receptor [4]; strain 1,90%
same,% Androgen Receptor Inhibition,androgen receptor [4]; strain 2,49%
same,% Androgen Receptor Inhibition,androgen receptor [4]; strain 3,39%
same,% Androgen Receptor Inhibition,androgen receptor [4]; strain 4,63%
same,% Estrogen Receptor Inhibition,estrogen receptor [5]; strain 1,0%
same,% Estrogen Receptor Inhibition,estrogen receptor [5]; strain 2,0%
same,% Estrogen Receptor Inhibition,estrogen receptor [5]; strain 3,0%
same,% Estrogen Receptor Inhibition,estrogen receptor [5]; strain 4,0%
same,% Progesterone Receptor Inhibition,progesterone receptor [6],0%
same,% Progesterone Receptor Inhibition,progesterone receptor [7]; strain 1,0%
same,% Progesterone Receptor Inhibition,progesterone receptor [7]; strain 2,0%
same,% Progesterone Receptor Inhibition,progesterone receptor [7]; strain 3,0%
same,% Progesterone Receptor Inhibition,progesterone receptor [7]; strain 4,0%
"CCC(CCCCC1CCC2CC(=O)CC12)OC (centres unmarked) [Compound V, 2-(5-Methoxyhept-1-yl)bicyclo[3.3.0]octan-7-one]",effect on estrogen receptors,estrogen receptors,without any significant effects
same,effect on estrogen receptors,estrogen receptors; listed as 2-(5-methoxyhept-1-yl)bicyclo[3.3.0]octan-7-one,no significant effects
same,interference with progesterone receptors,progesterone receptor [8]; more than 400 experiments,without significant interference
same,% Progesterone Receptor Inhibition,progesterone receptor [8]; forearm,4%
same,% Progesterone Receptor Inhibition,progesterone receptor [8]; keloid,0%
same,% Progesterone Receptor Inhibition,"progesterone receptor [8]; keloid, listed as 2-(5-methoxyhept-1-yl)bicyclo[3.3.0]octan-7-one",no measurable
same,% Progesterone Receptor Inhibition,progesterone receptor [8]; scalp,7% and 0% and 3%
same,effect on estrogen receptors in melanoma tissue,estrogen receptor [9],no significant effect
same,% Androgen Receptor Inhibition,androgen receptor [10]; forearm,22%
same,% Androgen Receptor Inhibition,androgen receptor [10]; keloid,72% and 41%
